Assay results reported in patent publication US20140142613A1, “INSTRUMENT FOR CAPTURING FREE THROMBI” (Toray Industries, Inc., priority 2011, published 2014).

Test system: citrated blood
Experiment: Measurement of whole blood clotting time (Sonoclot, ACT ONSET value)
Set-up: species or system human
Method: In a cuvette (NON-ACTIVATED CLOTTING TEST KIT), 18 μL of physiological saline was placed, and 14.8 μL of Calcicol was added thereto, followed by further adding 342 μL of the citrated blood to the resulting mixture. The mixture was then subjected to measurement using a Sonoclot coagulation & Platelet Function Analyzer (IMI Corporation), and the obtained ACT ONSET value was regarded as the whole blood clotting time.

Structure (SMILES): CC1CNc2c(cccc2S(=O)(=O)N[C@@H](CCCNC(=N)N)C(=O)N2CC[C@@H](C)C[C@@H]2C(=O)O)C1 (mixture of isomers) [argatroban, (2R,4R)-4-methyl-1-((2S)-2-{[(3RS)-3-methyl-1,2,3,4-tetrahydroquinolin-8-yl]sulfonyl}amino-5-guanidinopentanoyl)piperidine-2-carboxylic acid]
- whole blood clotting time (2 μM argatroban solution instead of physiological saline): 531 s
- whole blood clotting time (10 μM argatroban solution instead of physiological saline): 746 s
- whole blood clotting time (20 μM argatroban solution instead of physiological saline): 849 s
